Test results published in paper PMC10489938, “Developing an Amide-Spacered Triterpenoid Rhodamine Hybrid of Nano-Molar Cytotoxicity Combined with Excellent Tumor Cell/Non-Tumor Cell Selectivity” (Molecules, 2023).
Where a name gives a salt, the structure may show the parent alone. Read-outs that look alike come from different tables or passages of the source. Values belong to the compound of their own block, whether it stands above or below them.

Columns and labels:
[1] = tested on: human tumor cell lines and non-malignant fibroblasts (NIH 3T3); assay: SRB cytotoxicity assay, several cell lines stated together; type: cell-based; settings: all human tumor cell lines and non-malignant fibroblasts (NIH 3T3), limits of the assay
Experimental: (§1) Sulforhodamine (SRB) assays were performed to evaluate the cytotoxicity of the compounds. First, the cytotoxicity of the different rhodamines was determined; the results of these assays are compiled in Table 1 and Table 2 and depicted in Figure 1.
(§2) Experimental equipment: as previously described biological assays were performed as previously reported employing cell lines obtained from the Department of Oncology [Martin-Luther-University Halle Wittenberg; they were bought from ATCC [2, 4, 7]]. Rhodamine 101 B, as well as asiatic acid, were obtained from local vendors and used as received.
(§3) For the SRB assay and staining experiments: as previously described.

[2] = tested on: A375 (melanoma); assay: SRB cytotoxicity assay, A375; type: cell-based, human; settings: read-out: Cytotoxicity (EC50) A375
Experimental: as §1, §2, §3

[3] = tested on: HeLa (cervical adenocarcinoma); assay: SRB cytotoxicity assay, HeLa; type: cell-based, human; settings: read-out: Cytotoxicity (EC50) HeLa
Experimental: as §1, §2, §3

[4] = tested on: A2780 (ovarian carcinoma); assay: SRB cytotoxicity assay, A2780; type: cell-based, human; settings: read-out: Cytotoxicity (EC50) A2780
Experimental: as §1, §2, §3

[5] = tested on: MCF7 (breast adenocarcinoma); assay: SRB cytotoxicity assay, MCF7; type: cell-based, human; settings: read-out: Cytotoxicity (EC50) MCF7
Experimental: as §1, §2, §3

[6] = tested on: HT29 (colorectal carcinoma); assay: SRB cytotoxicity assay, HT29; type: cell-based, human; settings: read-out: Cytotoxicity (EC50) HT29
Experimental: as §1, §2, §3

[7] = SRB cytotoxicity assay, NIH 3T3; type: cell-based, murine; settings: mouse, NIH 3T3 non-malignant fibroblasts, Table 1, 72 h of treatment, cut-off 30 μM
Experimental: as §1, §2, §3

[8] = tested on: NIH 3T3 (non-malignant fibroblasts, murine); assay: SRB cytotoxicity assay, NIH 3T3; type: cell-based; settings: Table 1, 72 h of treatment, cut-off 30 μM
Experimental: as §1, §2, §3

[9] = Table 1, SRB assay, 72 h of treatment, cut-off 30 μM

Compound: CC(=O)OC[C@@]1(C)C2CC[C@]3(C)[C@H](CC=C4[C@@H]5[C@@H](C)[C@H](C)CC[C@]5(C(=O)N5CCN(C(=O)c6ccccc6C6=c7cc8c9c(c7Oc7c6cc6c%10c7CCCN%10CCC6)CCC[N+]=9CCC8)CC5)CC[C@]43C)[C@@]2(C)C[C@@H](OC(C)=O)[C@@H]1OC(C)=O (some centres unmarked) (as salt: chloride) [compound 10]
melting point: 244 to 247 °C

Compound: CC(=O)OC[C@@]1(C)C2CC[C@]3(C)[C@H](CC=C4[C@@H]5[C@@H](C)[C@H](C)CC[C@]5(C(=O)N5CCCN(C(=O)c6ccccc6-c6c7ccc(=[N+](C)C)cc-7oc7cc(N(C)C)ccc67)CC5)CC[C@]43C)[C@@]2(C)C[C@@H](OC(C)=O)[C@@H]1OC(C)=O (stereo partly drawn) (as salt: chloride) [compound 11, (2α,3β,4α)-9-[2-{[4-(2α,3β,23-Tris(Acetyloxy)-urs-12-en-28-oyl)-Homopiperazinyl]Carbonyl}Phenyl]-3,6-Bis(Dimethylamino)-Xanthylium Chloride]
melting point: 258 to 260 °C

Compound: CC(=O)OC[C@@]1(C)C2CC[C@]3(C)[C@H](CC=C4[C@@H]5[C@@H](C)[C@H](C)CC[C@]5(C(=O)N5CCCN(C(=O)c6ccccc6C6=c7cc8c9c(c7Oc7c6cc6c%10c7CCCN%10CCC6)CCC[N+]=9CCC8)CC5)CC[C@]43C)[C@@]2(C)C[C@@H](OC(C)=O)[C@@H]1OC(C)=O (some centres unmarked) (as salt: chloride) [compound 15]
melting point: 287 to 289 °C

Compound: CN(C)c1ccc2c(-c3ccccc3C(=O)O)c3ccc(=[N+](C)C)cc-3oc2c1 [Rh1, reference compound]
EC50 ([1]; NIH3T3): > 30 µM | EC50 ([2]; Homo sapiens, A-375, 72 h): > 30 µM | EC50 ([3]; Homo sapiens, HeLa, 72 h): > 30 µM | EC50 ([4]; Homo sapiens, A2780, 72 h): > 30 µM | EC50 ([5]; Homo sapiens, MCF7, 72 h): > 30 µM | EC50 ([6]; Homo sapiens, HT-29, 72 h): > 30 µM | EC50 at 72 h [7]: > 30 µM

Compound: rhodamine B [Rh2, reference compound]
EC50 [1]: > 30 µM | EC50 [2, 9]: > 30 µM | EC50 [3, 9]: > 30 µM | EC50 [4, 9]: > 30 µM | EC50 [5, 9]: > 30 µM | EC50 [6, 9]: > 30 µM | EC50 [8]: > 30 µM

Other lines, results leading:

melting point: 224 to 225 °C
Compound: CCCN(CCC)c1ccc2c(-c3ccccc3C(=O)N3CCCN(C(=O)[C@]45CC[C@@H](C)[C@H](C)[C@H]4C4=CC[C@@H]6[C@@]7(C)C[C@@H](OC(C)=O)[C@H](OC(C)=O)[C@@](C)(COC(C)=O)C7CC[C@@]6(C)[C@]4(C)CC5)CC3)c3ccc(=[N+](CCC)CCC)cc-3oc2c1 (stereo partly drawn) (as salt: chloride) [compound 13, (2α,3β,4α)-9-[2-{[4-(2α,3β,23-Tris(Acetyloxy)-urs-12-en-28-oyl)-Homopiperazinyl]Carbonyl}Phenyl]-3,6-Bis(Dipropylamino)-Xanthylium Chloride]

melting point: 210 to 213 °C
Compound: CCCCN(CCCC)c1ccc2c(-c3ccccc3C(=O)N3CCCN(C(=O)[C@]45CC[C@@H](C)[C@H](C)[C@H]4C4=CC[C@@H]6[C@@]7(C)C[C@@H](OC(C)=O)[C@H](OC(C)=O)[C@@](C)(COC(C)=O)C7CC[C@@]6(C)[C@]4(C)CC5)CC3)c3ccc(=[N+](CCCC)CCCC)cc-3oc2c1 (stereo partly drawn) (as salt: chloride) [compound 14, (2α,3β,4α)-9-[2-{[4-(2α,3β,23-Tris(Acetyloxy)-urs-12-en-28-oyl)-Homopiperazinyl]Carbonyl}Phenyl]-3,6-Bis(Dibutylamino)-Xanthylium Chloride]

melting point: 224 to 226 °C
Compound: CC(=O)OC[C@@]1(C)C2CC[C@]3(C)[C@H](CC=C4[C@@H]5[C@@H](C)[C@H](C)CC[C@]5(C(=O)N5CCCN(C(=O)c6ccccc6-c6c7ccc(=[N+](C)C)cc-7oc7cc(N(C)C)ccc67)CCC5)CC[C@]43C)[C@@]2(C)C[C@@H](OC(C)=O)[C@@H]1OC(C)=O (stereo partly drawn) (as salt: chloride) [compound 16, (2α,3β,4α)-9-[2-[{4-(2α,3β,23-Tris(Acetyloxy)-urs-12-en-28-oyl)-1,5-Diazocan-1-Yl]Carbonyl}Phenyl]-3,6-Bis(Dimethylamino)-Xanthylium Chloride]

melting point: 222 to 227 °C
Compound: CCN(CC)c1ccc2c(-c3ccccc3C(=O)N3CCCN(C(=O)[C@]45CC[C@@H](C)[C@H](C)[C@H]4C4=CC[C@@H]6[C@@]7(C)C[C@@H](OC(C)=O)[C@H](OC(C)=O)[C@@](C)(COC(C)=O)C7CC[C@@]6(C)[C@]4(C)CC5)CCC3)c3ccc(=[N+](CC)CC)cc-3oc2c1 (stereo partly drawn) (as salt: chloride) [compound 17, (2α,3β,4α)-9-[2-[{4-(2α,3β,23-Tris(Acetyloxy)-urs-12-en-28-oyl)-1,5-Diazocan-1-Yl]Carbonyl}Phenyl]-3,6-Bis(Diethylamino)-Xanthylium Chloride]

melting point: 207 to 209 °C
Compound: CCCN(CCC)c1ccc2c(-c3ccccc3C(=O)N3CCCN(C(=O)[C@]45CC[C@@H](C)[C@H](C)[C@H]4C4=CC[C@@H]6[C@@]7(C)C[C@@H](OC(C)=O)[C@H](OC(C)=O)[C@@](C)(COC(C)=O)C7CC[C@@]6(C)[C@]4(C)CC5)CCC3)c3ccc(=[N+](CCC)CCC)cc-3oc2c1 (stereo partly drawn) (as salt: chloride) [compound 18, (2α,3β,4α)-9-[2-[{4-(2α,3β,23-Tris(Acetyloxy)-urs-12-en-28-oyl)-1,5-Diazocan-1-Yl]Carbonyl}Phenyl]-3,6-Bis(Dipropylamino)-Xanthylium Chloride]

melting point: 215 to 218 °C
Compound: CCCCN(CCCC)c1ccc2c(-c3ccccc3C(=O)N3CCCN(C(=O)[C@]45CC[C@@H](C)[C@H](C)[C@H]4C4=CC[C@@H]6[C@@]7(C)C[C@@H](OC(C)=O)[C@H](OC(C)=O)[C@@](C)(COC(C)=O)C7CC[C@@]6(C)[C@]4(C)CC5)CCC3)c3ccc(=[N+](CCCC)CCCC)cc-3oc2c1 (stereo partly drawn) (as salt: chloride) [compound 19, (2α,3β,4α)-9-[2-[{4-(2α,3β,23-Tris(Acetyloxy)-urs-12-en-28-oyl)-1,5-Diazocan-1-Yl]Carbonyl}Phenyl]-3,6-Bis(Dibutylamino)-Xanthylium Chloride]
